Conditions: Liquid, Twin ebulliometer

CCCCCCC [heptane]
Conditions | vapor or sublimation pressure [kPa]
372.08 K | 102.9
374.5 K | 110.39
377.68 K | 120.89
384.39 K | 145.56
389.41 K | 166.41
393.58 K | 185.5
396.7 K | 200.79
401.26 K | 224.89
405.44 K | 248.92
409.66 K | 275.09
413.8 K | 302.76
419.17 K | 341.76
423.85 K | 378.8
428.69 K | 420.15
433.81 K | 467.65
438.86 K | 518.27
443.5 K | 568.27
447.95 K | 619.76
451.8 K | 666.97
456.35 K | 726.16
459.78 K | 773.29
465.07 K | 850.62
469.84 K | 925.23
473.39 K | 983.9
476.11 K | 1030.6
479.57 K | 1092.4
483.67 K | 1169.4
487.36 K | 1242.3
490.81 K | 1313.4
494.11 K | 1384.2
496.77 K | 1443.4
500.01 K | 1518.2
503.59 K | 1604.1
507.39 K | 1699.5
510.95 K | 1793
515.27 K | 1911.6
518.99 K | 2019.1
522.22 K | 2116.1
525.53 K | 2219.7
528.3 K | 2309.8
531.47 K | 2416.5
534.57 K | 2525.7
537.2 K | 2621.8

— the NIST ThermoML archive (doi:10.1021/je049562e)
